The results in this text go back to patent publication US8604042B2, “Bi-aryl meta-pyrimidine inhibitors of kinases” (TargeGen, Inc., priority 2005, dated 2013).

Structures are written as SMILES. Counter-ions that a name gives are not always drawn.

In this assay the target is T1, recombinant JAK2 (Homo sapiens, UniProt O60674).
T1 construct: purchased Upstate Cell Signaling Solutions
T1 sequence (O60674 808-1132 limits assumed): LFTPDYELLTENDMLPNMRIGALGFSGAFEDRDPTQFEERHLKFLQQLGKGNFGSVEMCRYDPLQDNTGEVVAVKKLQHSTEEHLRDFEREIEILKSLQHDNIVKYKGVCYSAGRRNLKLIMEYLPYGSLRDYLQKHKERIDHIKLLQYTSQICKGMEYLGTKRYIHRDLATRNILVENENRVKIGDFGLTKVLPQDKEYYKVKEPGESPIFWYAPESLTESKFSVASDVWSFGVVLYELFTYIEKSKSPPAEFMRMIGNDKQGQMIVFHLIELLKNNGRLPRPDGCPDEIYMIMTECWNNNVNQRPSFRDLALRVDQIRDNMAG
Nature of the assay: IC50 value determinations for Jak2 kinase, luminescence-based kinase assay (Kinase-Glo). Format: biochemical. To be noted: Table 1. On the technique in general: Kinase-Glo reads ATP consumption through a luciferase reaction.
Method: The IC50 values for compounds were determined using a luminescence-based kinase assay with recombinant JAK2 obtained from Upstate Cell Signaling Solutions. In white, flat bottom, 96-well plates (Nunc) parallel assays were run at room temperature at a final volume of 50 μL.
Two control reactions were also ran: one reaction containing no compound and the second containing neither inhibitor nor peptide substrate. IC50 values were derived from experimental data using the non-linear curve fitting capabilities of Prism (Version 4; GraphPad Software).
The term IC50 denotes the midpoint of a concentration-inhibition curve. For the compound `Cc1cnc(Nc2ccc(N3CCN(C)CC3)cc2)nc1Nc1cccc2[nH]ccc12` [N4-(1H-indol-4-yl)-5-methyl-N2-(4-(4-methylpiperazin-1-yl)phenyl)pyrimidine-2,4-diamine Hydrochloride], the IC50 amounted to 9.53 nM. The same measure for `Cc1cnc(Nc2ccc(OC3CCNCC3)cc2)nc1Nc1cccc2[nH]ccc12` [N4-(1H-indol-4-yl)-5-methyl-N2-(4-(piperidin-4-yloxy)phenyl)pyrimidine-2,4-diamine trifluoroacetic acid salt]: 4.27 nM; for `Cc1cnc(Nc2ccc(OCCN3CCCC3)cc2)nc1Nc1ccc(Cl)c(Cl)c1` [N4-(3,4-Dichloro-phenyl)-5-methyl-N2-[4-(2-pyrrolidin-1-yl-ethoxy)-phenyl]-pyrimidine-2,4-diamine]: 25.7 nM; for `COc1cc(Nc2nc(Nc3ccc(OC4CCNCC4)cc3)ncc2C)cc(OC)c1` [N4-(3,5-dimethoxyphenyl)-5-methyl-N2-(4-(piperidin-4-yloxy)phenyl)pyrimidine-2,4-diamine trifluoroacetate]: 137 nM.

Take `Cc1cnc(Nc2ccc(N3CCN(C)CC3)cc2)nc1Nc1cccc(-n2cccc2)c1` [N4-(3-(1H-pyrrol-1-yl)phenyl)-5-methyl-N2-(4-(4-methylpiperazin-1-yl)phenyl)pyrimidine-2,4-diamine]: the IC50 turned out to be 33.8 nM. The same measure for `Cc1cnc(Nc2ccc(N3CCN(C)CC3)cc2)nc1Nc1cccc(C(F)(F)F)c1C` [N4-(3-(trifluoromethyl)-2-methylphenyl)-5-methyl-N2-(4-(4-methylpiperazin-1-yl)phenyl)pyrimidine-2,4-diamine hydrochloride]: 87.1 nM. Then `Cc1cnc(Nc2ccc(OCCN3CCCC3)cc2)nc1Nc1cccc(Cl)c1` [N4-(3-Chloro-phenyl)-5-methyl-N2-[4-(2-pyrrolidin-1-yl-ethoxy)-phenyl]-pyrimidine-2,4-diamine], with 20.8 nM; and `Cc1cnc(Nc2ccc(OCCN3CCCC3)cc2)nc1Nc1cccc(N(C)C)c1` [N4-(3-Dimethylamino-phenyl)-5-methyl-N2-[4-(2-pyrrolidin-1-yl-ethoxy)-phenyl]-pyrimidine-2,4-diamine], with 19.7 nM.

Regarding `Cc1ccc(Nc2nc(Nc3ccc(N4CCN(C)CC4)cc3)ncc2C)cc1S(C)(=O)=O` [N4-(3-Methanesulfonyl-4-methyl-phenyl)-5-methyl-N2-[4-(4-methyl-piperazin-1-yl)-phenyl]-pyrimidine-2,4-diamine], the IC50 was found to be 160 nM. Then `COc1cccc(Nc2ccnc(Nc3ccc(OCCN4CCCC4)cc3)n2)c1C` [N4-(3-Methoxy-2-methyl-phenyl)-N2-[4-(2-pyrrolidin-1-yl-ethoxy)-phenyl]-pyrimidine-2,4-diamine], with 371 nM; and `Cc1cnc(Nc2ccc(C(C)N3CCOCC3)cc2)nc1Nc1cccc(C(C)(C)C)c1` (centres unmarked) [N4-(3-tert-butylphenyl)-5-methyl-N2-(4-(1-morpholinoethyl)-phenyl)pyrimidine-2,4-diamine Hydrochloride], with 19.9 nM.

Consider `Cc1cnc(Nc2ccc(-n3ccnc3C)cc2)nc1Nc1cccc(C(C)(C)C)c1` [N4-(3-tert-butylphenyl)-5-methyl-N2-(4-(2-methyl-1H-imidazol-1-yl)phenyl)pyrimidine-2,4-diamine Hydrochloride], for which the IC50 turned out to be 38.4 nM. Then `Cc1cnc(Nc2ccc(N3CCN(C)CC3)cc2)nc1Nc1cccc(C(C)(C)C)c1` [N4-(3-tert-butylphenyl)-5-methyl-N2-(4-(4-methylpiperazin-1-yl)phenyl)pyrimidine-2,4-diamine Hydrochloride], with 4.7 nM.

In the case of `Cc1cnc(Nc2ccc(C3CCNCC3)cc2)nc1Nc1cccc(C(C)(C)C)c1` [N4-(3-tert-butylphenyl)-5-methyl-N2-(4-(piperidin-4-yl)phenyl)pyrimidine-2,4-diamine Hydrochloride], the IC50 was found to be 20.9 nM. Then `Cc1cnc(Nc2ccc(OC3CCNCC3)cc2)nc1Nc1cccc(C(C)(C)C)c1` [N4-(3-tert-butylphenyl)-5-methyl-N2-(4-(piperidin-4-yloxy)phenyl)pyrimidine-2,4-diamine Hydrochloride], with 2.73 nM.

Turning to `Cc1cnc(Nc2ccc(OCCN3CCCC3)cc2)nc1Nc1ccc(Cl)c(F)c1` [N4-(4-Chloro-3-fluoro-phenyl)-5-methyl-N2-[4-(2-pyrrolidin-1-yl-ethoxy)-phenyl]-pyrimidine-2,4-diamine], the IC50 is 40.1 nM.

As for `COc1cc(Nc2nc(Nc3cccc(N4CCNCC4)c3)ncc2C)ccc1Cl` [N4-(4-Chloro-3-methoxy-phenyl)-5-methyl-N2-(3-piperazin-1-yl-phenyl)-pyrimidine-2,4-diamine], the IC50 came to 9.52 nM.

Regarding `COc1cc(Nc2nc(Nc3cccc(CN4CCNCC4)c3)ncc2C)ccc1Cl` [N4-(4-Chloro-3-methoxy-phenyl)-5-methyl-N2-(3-piperazin-1-ylmethyl-phenyl)-pyrimidine-2,4-diamine], the IC50 worked out at 15.8 nM.

Turning to `COc1cc(Nc2nc(Nc3ccc(N4CCOCC4)cc3)ncc2C)ccc1Cl` [N4-(4-Chloro-3-methoxy-phenyl)-5-methyl-N2-(4-morpholin-4-yl-phenyl)-pyrimidine-2,4-diamine], the 50% inhibitory concentration (IC50) was found to be 130 nM. Then `COc1cc(Nc2nc(Nc3ccc(CN4CCOCC4)cc3)ncc2C)ccc1Cl` [N4-(4-Chloro-3-methoxy-phenyl)-5-methyl-N2-(4-morpholin-4-ylmethyl-phenyl)-pyrimidine-2,4-diamine trifluoroacetate], with 13.3 nM; and `COc1cc(Nc2nc(Nc3ccc(CN4CCNCC4)cc3)ncc2C)ccc1Cl` [N4-(4-Chloro-3-methoxy-phenyl)-5-methyl-N2-(4-piperazin-1-ylmethyl-phenyl)-pyrimidine-2,4-diamine], with 15.2 nM.

As for `COc1cc(Nc2nc(Nc3ccc(N4CCCCC4)cc3)ncc2C)ccc1Cl` [N4-(4-Chloro-3-methoxy-phenyl)-5-methyl-N2-(4-piperidin-1-yl-phenyl)-pyrimidine-2,4-diamine], the IC50 worked out at 35.3 nM.

Regarding `COc1cc(Nc2nc(Nc3ccc(-n4cccn4)cc3)ncc2C)ccc1Cl` [N4-(4-Chloro-3-methoxy-phenyl)-5-methyl-N2-(4-pyrazol-1-yl-phenyl)-pyrimidine-2,4-diamine trifluoroacetate], the IC50 stood at 35.3 nM. As to `COc1cc(Nc2nc(Nc3ccc(Cn4cccn4)cc3)ncc2C)ccc1Cl` [N4-(4-Chloro-3-methoxy-phenyl)-5-methyl-N2-(4-pyrazol-1-ylmethyl-phenyl)-pyrimidine-2,4-diamine], the IC50 was determined as 18.9 nM. Then `COc1cc(Nc2nc(Nc3ccc(N4CCNCC4)nc3)ncc2C)ccc1Cl` [N4-(4-Chloro-3-methoxy-phenyl)-5-methyl-N2-(6-piperazin-1-yl-pyridin-3-yl)-pyrimidine-2,4-diamine], with 12.1 nM; and `COc1cc(Nc2nc(Nc3ccc(N4CCN(C)CC4)cc3)ncc2C)ccc1Cl` [N4-(4-Chloro-3-methoxy-phenyl)-5-methyl-N2-[4-(4-methyl-piperazin-1-yl)-phenyl]-pyrimidine-2,4-diamine], with 5.5 nM; and `COc1cc(Nc2nc(Nc3ccc(CN4CCN(C)CC4)cc3)ncc2C)ccc1Cl` [N4-(4-Chloro-3-methoxy-phenyl)-5-methyl-N2-[4-(4-methyl-piperazin-1-ylmethyl)-phenyl]-pyrimidine-2,4-diamine], with 12 nM. Then `COc1cc(Nc2nc(Nc3ccc(S(=O)(=O)C4CCNCC4)cc3)ncc2C)ccc1Cl` [N4-(4-Chloro-3-methoxy-phenyl)-5-methyl-N2-[4-(piperidine-4-sulfonyl)-phenyl]-pyrimidine-2,4-diamine], with 13 nM. The same measure for `Cc1cc(Nc2nc(Nc3ccc(OC4CCNCC4)cc3)ncc2C)ccc1Cl` [N4-(4-Chloro-3-methyl-phenyl)-5-methyl-N2-[4-(piperidin-4-yloxy)-phenyl]-pyrimidine-2,4-diamine]: 8.41 nM; for `Cc1cnc(Nc2ccc(OC3CCNCC3)cc2)nc1Nc1ccc(Cl)c(C(F)(F)F)c1` [N4-(4-Chloro-3-trifluoromethyl-phenyl)-5-methyl-N2-[4-(piperidin-4-yloxy)-phenyl]-pyrimidine-2,4-diamine]: 11.4 nM; for `Cc1cnc(Nc2ccc(OCCN3CCCC3)cc2)nc1Nc1ccc(Cl)cc1` [N4-(4-Chloro-phenyl)-5-methyl-N2-[4-(2-pyrrolidin-1-yl-ethoxy)-phenyl]-pyrimidine-2,4-diamine trifluoroacetate]: 18.2 nM.

On to `COc1cc(Nc2nc(Nc3ccc(OCCN4CCCC4)cc3)ncc2C)ccc1F` [N4-(4-Fluoro-3-methoxy-phenyl)-5-methyl-N2-[4-(2-pyrrolidin-1-yl-ethoxy)-phenyl]-pyrimidine-2,4-diamine], for which the IC50 came to 14.8 nM. As for `COc1ccc(Nc2ccnc(Nc3ccc(OCCN4CCCC4)cc3)n2)cc1` [N4-(4-Methoxy-phenyl)-N2-[4-(2-pyrrolidin-1-yl-ethoxy)-phenyl]-pyrimidine-2,4-diamine trifluoroacetate], the IC50 was found to be 4330 nM. The same measure for `Cc1cnc(Nc2ccc(CN3CCNCC3)cc2)nc1Nc1ccc(Cl)c2[nH]ccc12` [N4-(7-chloro-1H-indol-4-yl)-5-methyl-N2-(4-((piperazin-1-yl)methyl)phenyl)pyrimidine-2,4-diamine Hydrochloride]: 694 nM; for `Cc1cnc(Nc2ccc(N3CCN(C)CC3)cc2)nc1Nc1cccc2c1OCO2` [N4-Benzo[1,3]dioxol-4-yl-5-methyl-N2-[4-(4-methyl-piperazin-1-yl)-phenyl]-pyrimidine-2,4-diamine]: 14.2 nM.

As to `COc1cc(Nc2ncc(C)c(Nc3cccc4c3OCO4)n2)ccc1OCCN1CCCC1` [N4-Benzo[1,3]dioxol-4-yl-N2-[3-methoxy-4-(2-pyrrolidin-1-yl-ethoxy)-phenyl]-5-methyl-pyrimidine-2,4-diamine], the half-inhibitory concentration (IC50) stood at 9.34 nM. Then `Cc1cnc(Nc2ccc(OCCN3CCCC3)cc2)nc1Nc1ccc2c(c1)OCO2` [N4-Benzo[1,3]dioxol-5-yl-5-methyl-N2-[4-(2-pyrrolidin-1-yl-ethoxy)-phenyl]-pyrimidine-2,4-diamine trifluoroacetate], with 87.2 nM; and `Cc1cnc(Nc2ccc(OCCN3CCCC3)cc2)nc1Nc1csc2ccccc12` [N4-Benzo[b]thiophen-3-yl-5-methyl-N2-[4-(2-pyrrolidin-1-yl-ethoxy)-phenyl]-pyrimidine-2,4-diamine], with 12.4 nM.
